The target in series [1] is T1, Histone deacetylase (Homo sapiens) (UniProt Q13547+O15379+Q9UBN7+Q92769+Q9UQL6+Q8WUI4+Q9BY41+Q96DB2+P56524+Q9UKV0+Q969S8). As to conditions: HeLa, at 0.1 µM.
Description: Inhibition of HDAC in human HeLa cell extract assessed as fluorophore release at 0.1 uM by fluorescence spectrophotometry
Series [2] has as its target T1, Histone deacetylase (Homo sapiens). The following applies: HeLa, at 1 µM.
Description: Inhibition of HDAC in human HeLa cell extract assessed as fluorophore release at 1 uM by fluorescence spectrophotometry
Series [3] shares this target. As to conditions: HeLa, at 10 µM.
Description: Inhibition of HDAC in human HeLa cell extract assessed as fluorophore release at 10 uM by fluorescence spectrophotometry
The target of series [4] is Histone deacetylase. Description: Inhibition of HDAC in human HeLa cell extract assessed as fluorophore release by fluorescence spectrophotometry. It counts as protein assay.
The subject of series [5] is HCT-116. Description: Growth inhibition of human HCT116 cells after 5 days by alamar blue assay. The series is classed as functional. As to conditions: HCT-116, 120 h. In general terms: The colour change of resazurin is a common sign of viable cells or microbes.
Series [6] deals with Liver. Put plainly: Metabolic stability in rat liver S9 fraction assessed as compound remaining. It counts as ADME, subcellular.
The nature of series [7]: Fraction unbound in plasma. It counts as ADME, cell-free.

As a reminder, the inhibition is the drop in the measured response relative to a control, in per cent. A word on the IC50: it is the concentration that inhibits the measured activity by half. A word on the GI50: it is the concentration that inhibits growth by half. Read a low GI50 as more potent growth inhibition. The fraction unbound is free concentration divided by total concentration. The low end stands for extensive binding, the high end for weak binding.

Take `CC(C)(C)c1ccc(S(=O)(=O)N2CCC(CCCC(=O)NO)CC2)cc1`: the values for the inhibition in series [1] and in series [2] were 9% and 51%, respectively.
With `O=C(CCCC1CCN(S(=O)(=O)c2ccc(-c3ccccc3)cc2)CC1)NO`, the inhibition was found to be 20% in series [1], 44% in series [2] and 80% in series [3].
Consider `CC(C)c1ccc(S(=O)(=O)N2CCC(CCCC(=O)NO)CC2)cc1`, for which the IC50 in series [4] was found to be 0.537 µM. Further, the inhibition in series [1] was 18%; in series [2], 66%; in series [3], 84%.
Regarding `O=C(CCCC1CCN(S(=O)(=O)c2ccc3ncsc3c2)CC1)NO`, the inhibition in series [1] is 26%; in series [2], 69%; in series [3], 84%.
With `CC1(C)CCc2cc(S(=O)(=O)N3CCC(CCCC(=O)NO)CC3)ccc2O1`, the inhibition is 30% in series [1], 75% in series [2] and 86% in series [3].
Regarding `Cc1ccccc1S(=O)(=O)N1CCC(CCCC(=O)NO)CC1`, the inhibition in series [1] is 29%; in series [2], 69%.
In the same order, the values of `O=C(CCCC1CCN(S(=O)(=O)c2cccc(Cl)c2)CC1)NO` are 4% and 40%.
For `CN1CCOc2cc(S(=O)(=O)N3CCC(CCCC(=O)NO)CC3)ccc21`, the values for the inhibition in series [1] and in series [2] were 32% and 71%, respectively.
For `O=C(CCCC1CCN(S(=O)(=O)Nc2ccccc2)CC1)NO`, in series [5], halving of growth (GI50) required 2 µM. The results for the inhibition in series [1] and in series [2] were 40% and 70%, respectively.
The molecule `O=C(CCCC1CCN(S(=O)(=O)Cc2ccccc2)CC1)NO` had a GI50 in series [5] of 3.2 µM. For the same molecule, the figures for the inhibition in series [1], in series [2] and in series [3] were 17%, 58% and 71%, respectively.
Turning to `COc1ccc(S(=O)(=O)N2CCC(CCCC(=O)NO)CC2)c(OC)c1`, the inhibition in series [1] amounted to 22%; in series [2], 62%; in series [3], 83%.
On to `Cc1cc(S(=O)(=O)N2CCC(CCCC(=O)NO)CC2)cc2ccccc12`, for which the IC50 in series [4] stood at 0.124 µM. Growth in series [5] was halved (GI50) at 17.3 µM. Besides, the inhibition in series [1] was found to be 48%; in series [2], 82%; in series [3] it was 86%.
For `O=C(CCCC1CCN(S(=O)(=O)c2ccccc2O)CC1)NO`, the values for the inhibition in series [1], in series [2] and in series [3] were 37%, 75% and 84%, respectively.
Turning to `Cc1cc(C)c(S(=O)(=O)N2CCC(CCCC(=O)NO)CC2)c(C)c1`, the inhibition in series [1] came out at 32%; in series [2], 75%.
In series [5], `O=C(CCCC1CCN(S(=O)(=O)c2ccccc2)CC1)NO` gave a GI50 of 2.7 µM. Further, the inhibition was determined as 23% in series [1], 63% in series [2] and 84% in series [3].
With `COc1cccc(S(=O)(=O)N2CCC(CCCC(=O)NO)CC2)c1`, the inhibition in series [1] was determined as 28%; in series [2], 67%; in series [3] it was 83%.
For the molecule `CN(c1ccccc1)S(=O)(=O)N1CCC(CCCC(=O)NO)CC1`, the inhibition in series [1] stood at 19%; in series [2] it was 48%.
As to `O=C(CCCC1CCN(S(=O)(=O)c2ccc(F)cc2)CC1)NO`, the inhibition worked out at 21% in series [1] and 60% in series [2].
Take `O=C(CCCC1CCN(S(=O)(=O)c2ccc3ccccc3c2)CC1)NO`: the half-maximal inhibitory concentration (IC50) in series [4] was 0.128 µM. This molecule displayed a GI50 in series [5] of 1.9 µM. Further, the Stability in series [6] is on record as 2%. The same molecule returned a fraction unbound in series [7] of 0.02. Moreover, the inhibition turned out to be 53% in series [1], 68% in series [2] and 86% in series [3].
For `O=C(/C=C/CC1CCN(S(=O)(=O)c2ccccc2)CC1)NO`, the inhibition in series [1] is 19%; in series [2], 48%; in series [3] it was 78%.
For the molecule `Cc1cccc(S(=O)(=O)N2CCC(CCCC(=O)NO)CC2)c1`, the inhibition in series [1] was 24%; in series [2] it was 61%; in series [3], 83%.
In the case of `O=C(CCCC1CCN(S(=O)(=O)c2cccc3ccccc23)CC1)NO`, in series [4], the IC50 came out at 0.181 µM. The molecule also registered a GI50 in series [5] of 1.04 µM. For the same molecule, the Stability in series [6] came to 14%. In series [7], this molecule came in with a fraction unbound of 0.03. The inhibition turned out to be 40% in series [1], 80% in series [2] and 74% in series [3].
For `O=C(CCCC1CCN(S(=O)(=O)c2ccc3c(c2)CCO3)CC1)NO`, the inhibition in series [1] amounted to 36%; in series [2], 72%.
Turning to `O=C(CCCC1CCN(S(=O)(=O)c2ccccc2Cl)CC1)NO`, the IC50 in series [4] is 0.173 µM. In series [5], this molecule showed a GI50 of 2.8 µM. In addition, the results for the inhibition in series [1], in series [2] and in series [3] were 42%, 77% and 86%, respectively.
Regarding `O=C(CCCC1CCN(S(=O)(=O)c2ccc3c(c2)OCCO3)CC1)NO`, the inhibition in series [1] is 29%; in series [2], 68%.
In the same order, the values of `O=C(CCCC1CCN(S(=O)(=O)c2ccccc2C(F)(F)F)CC1)NO` are 30% and 69%.
As to `Cc1ccc(S(=O)(=O)N2CCC(CCCC(=O)NO)CC2)cc1`, the inhibition was found to be 28% in series [1] and 71% in series [2].
Consider `O=C(CCCC1CCN(S(=O)(=O)c2cccc(-c3cnco3)c2)CC1)NO`, for which the IC50 in series [4] came out at 0.213 µM. In addition, the results for the inhibition in series [1], in series [2] and in series [3] were 38%, 75% and 85%, respectively.
For the molecule `CN(Cc1ccccc1)S(=O)(=O)N1CCC(CCCC(=O)NO)CC1`, the inhibition in series [1] amounted to 29%; in series [2] it was 56%.
Turning to `O=C(CCCC1CCN(S(=O)(=O)c2cccc(C(F)(F)F)c2)CC1)NO`, the inhibition in series [1] is 13%; in series [2], 57%.
For the molecule `O=C(CCCC1CCN(S(=O)(=O)c2ccc(-c3cnco3)cc2)CC1)NO`, the results for the inhibition in series [1] and in series [2] were 35% and 74%, respectively.
Taken in the same sequence, the figures for `O=C(CCCC1CCN(S(=O)(=O)NCc2ccccc2)CC1)NO` were 29% and 65%.
Regarding `O=C(CCCC1CCN(S(=O)(=O)c2ccc(Cl)cc2)CC1)NO`, the inhibition amounted to 25% in series [1] and 62% in series [2].
Take `COc1ccc(S(=O)(=O)N2CCC(CCCC(=O)NO)CC2)cc1OC`: in series [4], the IC50 worked out at 0.317 µM. For the same molecule, the inhibition stood at 31% in series [1], 71% in series [2] and 84% in series [3].
For the molecule `Cc1cc(C)cc(S(=O)(=O)N2CCC(CCCC(=O)NO)CC2)c1`, the inhibition in series [1] amounted to 22%; in series [2] it was 65%; in series [3], 86%.
In the case of `O=C(CCCC1CCN(S(=O)(=O)c2ccc(C(F)(F)F)cc2)CC1)NO`, the inhibition in series [1] was 15%; in series [2], 55%.

For the origin of these results see ChEMBL document CHEMBL1909626, “4-N-Hydroxy-4-[1-(sulfonyl)piperidin-4-yl]-butyramides as HDAC inhibitors” (Bioorg Med Chem Lett, 2011).
